Reference: patent US20030044497A1, “Process to treat fish with tasteless smoke or carbon monoxide through the respiratory and circulatory systems” (priority 2001, published 2003)

Columns and labels:
[1] = CO gill absorption formula calculation for tuna; conditions: yellowfin tuna, hemoglobin 11-12 grams/deciliter x 1.39
Description: Hemoglobin CO capacity is 1.39 multiplied times the hemoglobin concentration in the blood which gives ml of CO per gram of Hb per deciliter of blood. For example, from the cardiorespiratory table above the hemoglobin concentration of yellowfin tuna is 11-12 grams/deciliter and when multiplied by 1.39 the result is 15.3-16.7 ml CO/deciliter of blood as the COHb capacity of yellowfin.
Maximum saturation time is a function of the gill absorption rate and reaching saturation equilibrium within the fish blood and the fish tissue. This absorption rate has two components, the CO bound to the Hb and the free CO diffused through the gills directly into the blood plasma. It can be computed by the following relationship:
CO gill absorption=(cardiac output*(Hb*1.39*%sat)*wt)+((cardiac output*(0.029*PCO)/100)*wt)
Cardiac output is in ml blood/min/kg; Hb is blood hemoglobin in grams/ml (Hb is divided by 100 to convert dl to ml; wt is fish weight in kg; 0.0029 is the solubility of CO in mlCO/dl; PCO is the partial pressure of CO in mmHg (0.0029*PCO) is divided by 100 to convert dl to ml.
From the cardiorespiratory function table above, we assume a yellowfin tuna with wt=1 kg; Hb=0.11 gm/ml; cardiac output=115 ml/min/kg; %sat=100%; and PCO=228 mmHg which is the partial pressure of tasteless smoke comprised of 30% CO. […]

[2] = liquid water or blood plasma; cited from earlier work
hemoglobin = conditions: cited from earlier work
[3] = Increase of CO concentration in treated flesh; conditions: treated fish flesh or other meats
Description: However, when natural fish flesh or other meats are treated with carbon monoxide the concentrations in the flesh can increase incrementally from approximately 1.1 to 20 times and on occasion to as much as 80 times. These observed and measured increases in carbon monoxide in the flesh are dependent upon several factors including the quantity of myoglobin in the fish and other meats, carbon monoxide concentration, time, and method of exposure.

[4] = 24 degrees Centigrade, one atmosphere, 20% reduction for seawater medium
Description: The volume of gas, vo, (in milliliters STPD) dissolved in one liter of water at one atmosphere pressure (760 mm Hg) is expressed by the following formula:
vo=absorption coefficient×(V×Po)
where V is the volume of the solvent, and Po is the partial pressure of the gas in atmospheres. Therefore, the amount of gas dissolved is dependent upon its partial pressure in a linear relationship.
The coefficient of solubility is defined as the volume of the gas taken up by a unit volume of the solvent under a particular set of temperature and pressure conditions. If v is the volume of the dissolved gas, measured at temperature T and partial pressure Pg atm, with To equal to 0 degrees Centigrade, then:

Humans = conditions: cited from earlier work

| SMILES | COHb capacity of blood [1] | solubility constant [2] | P50 partial pressure at which half the hemoglobin is saturated (hemoglobin) [mmHg] | increase of CO concentration in the flesh over natural, on occasion [3] [times] | maximum solubility [4] [ml CO per liter H2O] | COHb level at which rapid death occurs (Humans) | half-life (time for a 50% COHb reduction in the blood) (Humans) [h] |
| --- | --- | --- | --- | --- | --- | --- | --- |
| [C-]#[O+] [CO, carbon monoxide] | 15.3-16.7 ml CO/deciliter of blood | 0.029 mlCO/liter H2O/mmHgCO | 0.4 | ≤ 80 | 17.63 | exceed 80% | 5 |
| O=O [O2, oxygen, reference compound] |  | 0.030 ml O2/liter H2O/mm1Hg O2 |  |  |  |  |  |
